Test system: 377384-186-R-J1-PDC complex spheroid viability
Assay: Anticancer human tumor 377384-186-R-J1-PDC patient-derived pancreatic carcinoma cell line growth inhibition [CLK]
Settings: for IC50: curve of first compound; for viability, T/C: stronger effect = lower value
Outline: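 Patient-derived tumor cells grown as complex spheroids with HUVEC endothelial cells and mesenchymal stem cells, treated with drug combinations. Concentrations descend in half-log steps from near clinical Cmax, or from 10 microM if Cmax unknown.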

[1] = second compound 0.0316 µM, first compound 0.0316 µM
[2] = second compound 0.0316 µM, first compound 0.1 µM
[3] = second compound 0.0316 µM, first compound 0.316 µM
[4] = second compound 0.0316 µM, first compound 1 µM
[5] = second compound 0.0316 µM, first compound 3.16 µM
[6] = second compound 0.0316 µM, first compound 10 µM
[7] = second compound 0.1 µM, first compound 0.0316 µM
[8] = second compound 0.1 µM, first compound 0.1 µM
[9] = second compound 0.1 µM, first compound 0.316 µM
[10] = second compound 0.1 µM, first compound 1 µM
[11] = second compound 0.1 µM, first compound 3.16 µM
[12] = second compound 0.1 µM, first compound 10 µM
[13] = second compound 0.316 µM, first compound 0.0316 µM
[14] = second compound 0.316 µM, first compound 0.1 µM
[15] = second compound 0.316 µM, first compound 0.316 µM
[16] = second compound 0.316 µM, first compound 1 µM
[17] = second compound 0.316 µM, first compound 3.16 µM
[18] = second compound 0.316 µM, first compound 10 µM
[19] = second compound 1 µM, first compound 0.0316 µM
[20] = second compound 1 µM, first compound 0.1 µM
[21] = second compound 1 µM, first compound 0.316 µM
[22] = second compound 1 µM, first compound 1 µM
[23] = second compound 1 µM, first compound 3.16 µM
[24] = second compound 1 µM, first compound 10 µM
[25] = second compound 3.16 µM, first compound 0.0316 µM
[26] = second compound 3.16 µM, first compound 0.1 µM
[27] = second compound 3.16 µM, first compound 0.316 µM
[28] = second compound 3.16 µM, first compound 1 µM
[29] = second compound 3.16 µM, first compound 3.16 µM
[30] = second compound 3.16 µM, first compound 10 µM
[31] = second compound 10 µM, first compound 0.0316 µM
[32] = second compound 10 µM, first compound 0.1 µM
[33] = second compound 10 µM, first compound 0.316 µM
[34] = second compound 10 µM, first compound 1 µM
[35] = second compound 10 µM, first compound 3.16 µM
[36] = second compound 10 µM, first compound 10 µM
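Note: spheroids exposed to agents for 7 days before reading.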
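Throughout, for viability, T/C: luminescence signal used as a stand-in for viable cells.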

## CCCS(=O)(=O)Nc1ccc(F)c(C(=O)c2c[nH]c3ncc(-c4ccc(Cl)cc4)cc23)c1F + CNC(=O)c1ccc(Nc2nc(OC3CCCC3)c3c(-c4ccc5nc(C)oc5c4)c[nH]c3n2)c(OC)c1
Second compound 0.0316 µM
  IC50: > 10000 nM
Second compound 0.1 µM
  IC50: 1620 nM
Second compound 0.316 µM
  IC50: < 31.6 nM
Second compound 1 µM
  IC50: < 31.6 nM
Second compound 3.16 µM
  IC50: < 31.6 nM
Second compound 10 µM
  IC50: < 31.6 nM
[1]
  viability, T/C: 103%
[2]
  viability, T/C: 118%
[3]
  viability, T/C: 115%
[4]
  viability, T/C: 123%
[5]
  viability, T/C: 107%
[6]
  viability, T/C: 52.5%
[7]
  viability, T/C: 65.1%
[8]
  viability, T/C: 70%
[9]
  viability, T/C: 49.1%
[10]
  viability, T/C: 59.7%
[11]
  viability, T/C: 44%
[12]
  viability, T/C: 37.2%
[13]
  viability, T/C: 19.9%
[14]
  viability, T/C: 22.5%
[15]
  viability, T/C: 23.6%
[16]
  viability, T/C: 22.6%
[17]
  viability, T/C: 32.6%
[18]
  viability, T/C: 24.3%
[19]
  viability, T/C: 18.9%
[20]
  viability, T/C: 20.6%
[21]
  viability, T/C: 23.6%
[22]
  viability, T/C: 27%
[23]
  viability, T/C: 30.7%
[24]
  viability, T/C: 24.8%
[25]
  viability, T/C: 19.8%
[26]
  viability, T/C: 25.4%
[27]
  viability, T/C: 23.9%
[28]
  viability, T/C: 28%
[29]
  viability, T/C: 29%
[30]
  viability, T/C: 23.4%
[31]
  viability, T/C: 21.5%
[32]
  viability, T/C: 23.3%
[33]
  viability, T/C: 26.8%
[34]
  viability, T/C: 29.1%
[35]
  viability, T/C: 31.1%
[36]
  viability, T/C: 29%

## COC1C=CCC(C)C(C)S(=O)(=O)NC(=O)c2ccc3c(c2)N(CC2CCC21)CC1(CCCc2cc(Cl)ccc21)CO3 (centres undefined) + CNC(=O)c1ccc(Nc2nc(OC3CCCC3)c3c(-c4ccc5nc(C)oc5c4)c[nH]c3n2)c(OC)c1
Second compound 0.0316 µM
  IC50: 5940 nM
Second compound 0.1 µM
  IC50: 4470 nM
Second compound 0.316 µM
  IC50: < 31.6 nM
Second compound 1 µM
  IC50: < 31.6 nM
Second compound 3.16 µM
  IC50: < 31.6 nM
Second compound 10 µM
  IC50: < 31.6 nM
[1]
  viability, T/C: 100%
[2]
  viability, T/C: 99.6%
[3]
  viability, T/C: 97.8%
[4]
  viability, T/C: 92.9%
[5]
  viability, T/C: 84.2%
[6]
  viability, T/C: 22.4%
[7]
  viability, T/C: 57.9%
[8]
  viability, T/C: 61.9%
[9]
  viability, T/C: 56%
[10]
  viability, T/C: 68.4%
[11]
  viability, T/C: 60%
[12]
  viability, T/C: 26.2%
[13]
  viability, T/C: 19.9%
[14]
  viability, T/C: 17.2%
[15]
  viability, T/C: 18.3%
[16]
  viability, T/C: 16.8%
[17]
  viability, T/C: 23%
[18]
  viability, T/C: 19.2%
[19]
  viability, T/C: 19%
[20]
  viability, T/C: 17.6%
[21]
  viability, T/C: 14.9%
[22]
  viability, T/C: 12.4%
[23]
  viability, T/C: 17.8%
[24]
  viability, T/C: 21.9%
[25]
  viability, T/C: 18.9%
[26]
  viability, T/C: 18.9%
[27]
  viability, T/C: 13.4%
[28]
  viability, T/C: 13.9%
[29]
  viability, T/C: 14.6%
[30]
  viability, T/C: 20.8%
[31]
  viability, T/C: 18.5%
[32]
  viability, T/C: 16.6%
[33]
  viability, T/C: 15.1%
[34]
  viability, T/C: 12.4%
[35]
  viability, T/C: 12.3%
[36]
  viability, T/C: 18%

Source: PubChem BioAssay AID2060616 (Molecular Pharmacology Branch, DTP, NCI, 2025)
